Values quoted from earlier work, collected in paper PMC3935482 (Clinical cancer research : an official journal of the …, 2013).
Read-outs that look alike come from different tables or passages of the source.

Experiments:
[1] = oral rapamycin and IV temsirolimus

Row | Half-life (given by weekly IV infusion) [h] | Half-life [1] [h] | Grade 3 or 4 depression (patients; phase 2 study, 250 mg dose level) [%] | Cmax of rapamycin (5 mg oral rapamycin) [ng/mL] | Cmax of rapamycin (9 mg oral rapamycin) [ng/mL] | Cmax of rapamycin (60 mg oral rapamycin) [ng/mL] | Structure (SMILES) | Patients with dermatologic toxicities such as rash (patients; patients receiving temsirolimus)
1 | 45 to 52 | – | – | – | – | – | CO[C@H]1C[C@@H]2CC[C@@H](C)[C@@](O)(O2)C(=O)C(=O)N2CCCC[C@H]2C(=O)O[C@H]([C@H](C)C[C@@H]2CC[C@@H](OP(C)(C)=O)[C@H](OC)C2)CC(=O)[C@H](C)/C=C(\C)[C@@H](O)[C@@H](OC)C(=O)[C@H](C)C[C@H](C)/C=C/C=C/C=C/1C [deferolimus] | –
2 | – | 61 to 69 | 10 | – | – | – | CO[C@H]1C[C@@H]2CC[C@@H](C)[C@@](O)(O2)C(=O)C(=O)N2CCCC[C@H]2C(=O)O[C@H]([C@H](C)C[C@@H]2CC[C@@H](OC(=O)C(C)(CO)CO)[C@H](OC)C2)CC(=O)[C@H](C)/C=C(\C)[C@@H](O)[C@@H](OC)C(=O)[C@H](C)C[C@H](C)/C=C/C=C/C=C/1C [temsirolimus] | up to 50%
3 | – | 61 to 69 | – | 15.5 | 37.9 | 57.72 | CO[C@H]1C[C@@H]2CC[C@@H](C)[C@@](O)(O2)C(=O)C(=O)N2CCCC[C@H]2C(=O)O[C@H]([C@H](C)C[C@@H]2CC[C@@H](O)[C@H](OC)C2)CC(=O)[C@H](C)/C=C(\C)[C@@H](O)[C@@H](OC)C(=O)[C@H](C)C[C@H](C)/C=C/C=C/C=C/1C [rapamycin] | –
